Series [1] is described as follows: Metabolic stability in tryptic soy broth assessed as decomposition at 50 uM after 48 hrs. Format: physicochemical.
Series [2] in a line: Metabolic stability in tryptic soy broth assessed as S-oxidation at 50 uM after 48 hrs. Format: physicochemical.
The subject of another series is Pseudomonas aeruginosa. Put plainly: Toxicity against Pseudomonas aeruginosa PA14 assessed as viability at 25 uM by spectrophotometry. The following applies: read-out: Activity. Format: organism-based.
The target in the next series is Elastase (Pseudomonas aeruginosa (strain ATCC 15692 / PAO1 / 1C / PRS 101 / LMG12228), UniProt P14756). Put plainly: (§1) Antagonist activity at Pseudomonas aeruginosa LasB using Abz-Ala-Gly-Leu-Ala-p-Nitro-Benzyl-Amide as substrate incubated for 30 mins prior to substrate addition by FRET assay. Format: functional.
Chain of Elastase (P14756 whole entry): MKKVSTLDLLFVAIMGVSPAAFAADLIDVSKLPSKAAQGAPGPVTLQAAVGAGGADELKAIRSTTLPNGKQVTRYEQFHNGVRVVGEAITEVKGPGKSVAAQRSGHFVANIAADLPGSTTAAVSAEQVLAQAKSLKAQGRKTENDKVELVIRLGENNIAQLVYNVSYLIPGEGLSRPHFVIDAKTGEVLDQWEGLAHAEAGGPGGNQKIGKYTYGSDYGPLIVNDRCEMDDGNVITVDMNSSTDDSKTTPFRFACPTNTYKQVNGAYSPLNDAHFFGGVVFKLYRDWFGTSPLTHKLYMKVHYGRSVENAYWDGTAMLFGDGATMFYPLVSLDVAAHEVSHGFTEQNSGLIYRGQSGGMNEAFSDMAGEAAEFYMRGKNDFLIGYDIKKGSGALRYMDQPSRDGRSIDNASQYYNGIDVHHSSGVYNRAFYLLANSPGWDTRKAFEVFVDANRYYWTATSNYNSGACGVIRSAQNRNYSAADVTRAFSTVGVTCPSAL
In series [3] the target is Elastase (Pseudomonas aeruginosa (strain ATCC 15692 / PAO1 / 1C / PRS 101 / LMG12228)) (UniProt P14756). Put plainly: Antagonist activity at Pseudomonas aeruginosa PA14 LasB assessed as inhibition of swarming at 25 uM after 16 hrs swarming motility assay relative to control. Format: functional.
Chain of Elastase (Pseudomonas aeruginosa (strain ATCC 15692 / PAO1 / 1C / PRS 101 / LMG12228)) (P14756 198-498 limits assumed): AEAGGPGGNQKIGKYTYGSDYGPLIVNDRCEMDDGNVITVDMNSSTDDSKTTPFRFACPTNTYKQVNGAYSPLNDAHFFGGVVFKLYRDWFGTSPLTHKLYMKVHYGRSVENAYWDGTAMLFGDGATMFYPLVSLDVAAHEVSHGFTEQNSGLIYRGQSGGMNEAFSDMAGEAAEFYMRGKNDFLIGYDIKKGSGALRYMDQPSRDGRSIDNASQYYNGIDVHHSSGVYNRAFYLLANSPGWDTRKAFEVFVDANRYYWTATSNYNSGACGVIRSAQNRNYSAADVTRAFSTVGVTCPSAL
For series [4] the target is unchanged. The series is described as §1. Format: functional.

The structures appear in SMILES notation. pIC50: −log10 of the molar value. The source made the active and inactive calls. The rule behind the calls is not given here.

The pIC50 is the IC50 on a negative log10 scale, so that one unit is a factor of ten.

In the case of `Cc1c(O)c(=S)ccn1Cc1ccc(-c2ccc(F)c(F)c2)cc1`, the Stability entry in series [1] and in series [2] was “Stable” in each case. Moreover, in the series on Pseudomonas aeruginosa, the viability at 25 µM worked out at 95%. Besides, at Elastase, the pIC50 was 5.48. Besides, in series [3], the outcome was Active.
`Cc1c(O)c(=S)ccn1Cc1ccc(-c2ccc(Cl)cc2)cc1` gave a pIC50 against Elastase of 5.28.
At Elastase, `Cc1ccc(-c2ccc(Cn3ccc(=S)c(O)c3C)cc2)cc1` had a pIC50 of 5.17.
`COc1ccc(-c2ccc(Cn3ccc(=S)c(O)c3C)cc2)cc1` showed a pIC50 against Elastase of 5.07.
On to `CCn1ccc(=S)c(O)c1C`, for which the Activity result in series [4] was “Dose-dependent effect”. Moreover, the pIC50 at Elastase was 4.05.
On to `Cc1c(O)c(=S)ccn1C`, for which the Activity entry in series [4] was “Dose-dependent effect”.
`Cc1c(O)c(=S)ccn1Cc1ccc(-c2ccc3c(c2)OCO3)cc1`: on Elastase, the pIC50 is 5.45.
With `Cc1c(O)c(=S)ccn1Cc1ccc(-c2ccccc2)cc1`, the Stability result in series [1] and in series [2] was “Stable” each time. Besides, the viability at 25 µM with Pseudomonas aeruginosa amounted to 95%. This compound also had a pIC50 against Elastase of 5.56. For the same compound, the result in series [3] was Active.
On to `O=C(Cc1ccccc1)NO` [PHENYLACETOHYDROXAMIC ACID], for which the Stability entry in series [1] and in series [2] was “Unstable” in each case. Further, in series [4], the Activity entry was “Dose-dependent effect”. The compound further gave a pIC50 at Elastase of 4.87. The outcome in series [3] was inactive.
On to `Cn1cccc(O)c1=S`, for which the Activity result in series [4] is “Dose-dependent effect”. Moreover, the pIC50 at Elastase is 3.66.
For `Cc1c(O)c(=S)ccn1Cc1ccc(-c2ccc(F)cc2)cc1`, the pIC50 at Elastase was 5.33.
As for `CCc1c(O)c(=S)ccn1CC`, the Activity result in series [4] was “Dose-dependent effect”.
As for `O=C(Cc1cccc(F)c1)NO`, the Stability entry in series [1] and in series [2] was “Unstable” each time. Further, the Activity result in series [4] is “Dose-dependent effect”. The compound also showed a negative-log IC50 (pIC50) on Elastase of 4.79. Also, the outcome in series [3] was inactive.

(Values after ChEMBL document CHEMBL2146446, “3-Hydroxy-1-alkyl-2-methylpyridine-4(1H)-thiones: Inhibition of the Pseudomonas aeruginosa Virulence Factor LasB” (ACS Med Chem Lett, 2012).)
